{"source": "paper PMC11504268", "about": "(Antibiotics, 2024)", "remark": "listed apart in the source", "key": {"[1]": {"procedure": "The estimation of parameters, including fixed and random effects, was conducted using first-order conditional estimation with the interaction method. This enables modelling of the interaction between the IIV in PK parameters and the residual variability (RV) in measured concentrations. […] Each model adhered to first-order kinetics, except the zero-order infusion processes. Each PK parameter in the model was described by the equation θi = θ × exp (ηi), where θ denotes the typical value of the PK parameter, θi is the individual PK parameter value for each participant, and ηi is a random variable encapsulating IIV. We hypothesised that IIV is normally distributed, with a mean of zero and variance ω^2. RV was modelled as normally distributed with a mean of zero and a variance σ^2. Additionally, we evaluated additive, proportional, and combined additive-proportional error models. The methods used to select and validate models encompassed several criteria: variations in NONMEM objective function values (OFVs), the accuracy of parameter estimates as reflected by relative standard errors, goodness-of-fit plots, VPC, and bootstrap evaluations. […] Model validation processes included the creation of conditional weighted residual plots versus time and against population predictions (PRED), in addition to comparisons between observed data and both PRED and individual predictions. […] The variability in the final model predictions was analysed using the median and 95% confidence intervals from 2000 bootstrap replicates. We identified significant covariates influencing pharmacokinetic (PK) parameters through a process of stepwise forward selection and backward elimination, with inclusion thresholds of p < 0.01 (ΔOFV < −6.635) and exclusion thresholds of p < 0.001 (ΔOFV > 10.83) for single degree-of-freedom tests. Covariates were assessed for both their statistical and clinical relevance, taking into account demographic factors (such as gender, age, weight, height, body mass index, and body surface area) and biochemical markers (including serum protein, albumin, creatinine, and cystatin C levels). […] We utilised Perl-speaks-NONMEM (PSN, version 5.3.1, [https://uupharmacometrics.github.io/PsN], accessed on 13 April 2023) for covariate identification, VPC execution, and nonparametric bootstrapping to evaluate model robustness. Data analysis and graphical outputs were conducted using the R programming environment (version 4.4.0, [www.rproject.org], Vienna, Austria, accessed on 6 June 2024)."}, "[2]": {"details": "cited from earlier work; for average AUC: critically ill patients, daily dose 30 mg/kg"}, "[3]": {"details": "final model, 2000 bootstrap replicates"}, "[4]": {"details": "final model, Q = θ5 × (WT/69.45)^θ6"}, "[5]": {"details": "final model, V2 = θ7 × (BSA/1.80)^θ8"}, "[6]": {"details": "healthy adults n = 12, 1 g i.v. over 2 h, plasma, NCA, mean (CV%)"}, "[7]": {"details": "healthy adults n = 12, 1 g i.v. over 2 h, plasma, NCA, median (IQR)"}}, "note": "Read-outs that look alike come from different tables or passages of the source.", "data": [{"smiles": "C[C@@H](O)[C@H]1C(=O)N2C(C(=O)O)=C(S[C@@H]3CN[C@H](C(=O)N(C)C)C3)[C@H](C)[C@H]12", "note": "[meropenem]", "values": [{"measurement": "V1, Estimates", "setting": "[1]; in vivo", "result": 15.1, "unit": "L"}, {"measurement": "V2, Estimates", "setting": "[1]; in vivo", "result": 26.2, "unit": "L"}]}, {"smiles": "CN[C@H](CC(C)C)C(=O)N[C@H]1C(=O)N[C@@H](CC(N)=O)C(=O)N[C@H]2C(=O)N[C@H]3C(=O)N[C@H](C(=O)N[C@H](C(=O)O)c4cc(O)cc(O)c4-c4cc3ccc4O)[C@H](O)c3ccc(c(Cl)c3)Oc3cc2cc(c3O[C@@H]2O[C@H](CO)[C@@H](O)[C@H](O)[C@H]2O[C@H]2C[C@](C)(N)[C@H](O)[C@H](C)O2)Oc2ccc(cc2Cl)[C@H]1O", "note": "[vancomycin]", "values": [{"measurement": "clearance rate per kg", "setting": "[1]; final model typical CL 8.83 L/h expressed per kg, healthy adults with normal renal function", "result": 2.12, "unit": "mL/min/kg"}, {"measurement": "θ1, typical total clearance CL, Bootstrap Median (95% CI)", "setting": "[1]; [3]", "result": "8.78 (8.14–9.6) L/h"}, {"measurement": "θ4, central volume of distribution V1, Bootstrap Median (95% CI)", "setting": "[1]; [3]", "result": "12.8 (3.94–19.6) L"}, {"measurement": "θ5, intercompartmental clearance Q, Bootstrap Median (95% CI)", "setting": "[1]; [3]", "result": "20.4 (16.8–28.2) L/h"}, {"measurement": "θ6, exponent of weight on Q, Bootstrap Median (95% CI)", "setting": "[1]; [3]", "result": "2.31 (1.36–3.35)"}, {"measurement": "θ7, peripheral volume of distribution V2, Bootstrap Median (95% CI)", "setting": "[1]; [3]", "result": "27.8 (25.0–31.0) L"}, {"measurement": "θ8, exponent of BSA on V2, Bootstrap Median (95% CI)", "setting": "[1]; [3]", "result": "3.13 (1.79–3.73)"}, {"measurement": "θ1, typical total clearance CL, Estimates", "setting": "[1]; final model, CL = θ1 × (WT/69.45)^θ2 × (AGE/38.5)^θ3, 12 healthy adults", "result": 8.83, "unit": "L/h"}, {"measurement": "θ5, intercompartmental clearance Q, Estimates", "setting": "[1]; [4]", "result": 20.2, "unit": "L/h"}, {"measurement": "θ6, exponent of weight on Q, Estimates", "setting": "[1]; [4]", "result": 2.38}, {"measurement": "θ4, central volume of distribution V1, Estimates", "setting": "[1]; final model, V1 = θ4", "result": 12.9, "unit": "L"}, {"measurement": "θ7, peripheral volume of distribution V2, Estimates", "setting": "[1]; [5]", "result": 27.4, "unit": "L"}, {"measurement": "θ8, exponent of BSA on V2, Estimates", "setting": "[1]; [5]", "result": 3.09}, {"measurement": "VC, Mean (CV%)", "setting": "[1]; individual parameters from population PK, central volume of distribution, n = 12, mean (CV%)", "result": "0.211 (48.0) L/kg"}, {"measurement": "VC, Median (IQR)", "setting": "[1]; individual parameters from population PK, central volume of distribution, n = 12, median (IQR)", "result": "0.163 (0.144–0.251) L/kg"}, {"measurement": "t1/2α, Mean (CV%)", "setting": "[1]; individual parameters from population PK, distribution phase half-life, n = 12, mean (CV%)", "result": "0.270 (42.7) h"}, {"measurement": "AUCtau, Mean (CV%)", "setting": "[1]; individual parameters from population PK, dose/CL, 1 g, n = 12, mean (CV%)", "result": "113 (28.9) mg·h/L"}, {"measurement": "AUCtau, Median (IQR)", "setting": "[1]; individual parameters from population PK, dose/CL, 1 g, n = 12, median (IQR)", "result": "111 (81.9–137) mg·h/L"}, {"measurement": "t1/2β, Mean (CV%)", "setting": "[1]; individual parameters from population PK, elimination phase half-life, n = 12, mean (CV%)", "result": "3.88 (12.5) h"}, {"measurement": "Vss, Mean (CV%)", "setting": "[1]; individual parameters from population PK, steady-state volume of distribution, n = 12, mean (CV%)", "result": "0.611 (16.5) L/kg"}, {"measurement": "Vss, Median (IQR)", "setting": "[1]; individual parameters from population PK, steady-state volume of distribution, n = 12, median (IQR)", "result": "0.593 (0.565–0.650) L/kg"}, {"measurement": "CL, Mean (CV%)", "setting": "[1]; individual parameters from population PK, total clearance, healthy adults n = 12, 1 g i.v. over 2 h, mean (CV%)", "result": "0.135 (17.0) L/h/kg"}, {"measurement": "CL, Median (IQR)", "setting": "[1]; individual parameters from population PK, total clearance, healthy adults n = 12, median (IQR)", "result": "0.131 (0.117–0.144) L/h/kg"}, {"measurement": "Q, Estimates", "setting": "[1]; two-compartment base model", "result": 17.8, "unit": "L/h"}, {"measurement": "vancomycin clearance", "setting": "[2]; ICU patients, CLCR 130 mL/min", "result": 6.20, "unit": "L/h"}, {"measurement": "vancomycin clearance", "setting": "[2]; ICU patients, CLCR 180 mL/min", "result": 8.61, "unit": "L/h"}, {"measurement": "vancomycin clearance", "setting": "[2]; critically ill ARC patients, average CLCR 180.8 mL/min", "result": 9.7, "unit": "L/h"}, {"measurement": "vancomycin clearance", "setting": "[2]; critically ill non-ARC patients, average CLCR 103.4 mL/min", "result": 6.5, "unit": "L/h"}, {"measurement": "average AUC", "setting": "[2]; 139 patients with augmented renal clearance (ARC)", "result": 232.9, "unit": "µg·h/mL"}, {"measurement": "average AUC", "setting": "[2]; 141 patients without ARC", "result": 316.2, "unit": "µg·h/mL"}, {"measurement": "vancomycin clearance", "setting": "[2]; patients with ARC", "result": 5.55, "unit": "L/h"}, {"measurement": "vancomycin clearance", "setting": "[2]; patients with non-ARC", "result": 4.04, "unit": "L/h"}, {"measurement": "vancomycin clearance", "setting": "[2]; patients with thermal or inhalation injuries, TBSA burns 10–19%", "result": 8.2, "unit": "L/h"}, {"measurement": "vancomycin clearance", "setting": "[2]; patients with thermal or inhalation injuries, TBSA burns 20–29%", "result": 8.9, "unit": "L/h"}, {"measurement": "vancomycin clearance", "setting": "[2]; patients with thermal or inhalation injuries, TBSA burns < 10%", "result": 6.9, "unit": "L/h"}, {"measurement": "Cmax, Mean (CV%)", "setting": "healthy Korean adults n = 12, single 1 g i.v. infusion over 2 h, plasma, LC-MS/MS, NCA, mean (CV%)", "result": "23.4 (34.4) mg/L"}, {"measurement": "Cmax, Median (IQR)", "setting": "healthy Korean adults n = 12, single 1 g i.v. infusion over 2 h, plasma, LC-MS/MS, NCA, median (IQR)", "result": "20.8 (17.0–27.1) mg/L"}, {"measurement": "AUCinf, Mean (CV%)", "setting": "[6]", "result": "106 (30.5) mg·h/L"}, {"measurement": "AUClast, Mean (CV%)", "setting": "[6]", "result": "78.7 (28.2) mg·h/L"}, {"measurement": "AUMCinf, Mean (CV%)", "setting": "[6]", "result": "667 (40.0) mg·h^2/L"}, {"measurement": "AUMClast, Mean (CV%)", "setting": "[6]", "result": "289 (26.7) mg·h^2/L"}, {"measurement": "MRTinf, Mean (CV%)", "setting": "[6]", "result": "5.12 (18.9) h"}, {"measurement": "AUCinf, Median (IQR)", "setting": "[7]", "result": "97.1 (76.1–140) mg·h/L"}, {"measurement": "AUClast, Median (IQR)", "setting": "[7]", "result": "73.6 (58.5–90.4) mg·h/L"}, {"measurement": "AUMCinf, Median (IQR)", "setting": "[7]", "result": "587 (464–807) mg·h^2/L"}, {"measurement": "AUMClast, Median (IQR)", "setting": "[7]", "result": "279 (217–341) mg·h^2/L"}, {"measurement": "MRTinf, Median (IQR)", "setting": "[7]", "result": "4.98 (4.46–5.60) h"}, {"measurement": "VssNCA, Mean (CV%)", "setting": "steady-state Vd by NCA, healthy adults n = 12, 1 g i.v. over 2 h, mean (CV%)", "result": "0.730 (15.7) L/kg"}, {"measurement": "VssNCA, Median (IQR)", "setting": "steady-state Vd by NCA, healthy adults n = 12, 1 g i.v. over 2 h, median (IQR)", "result": "0.714 (0.650–0.802) L/kg"}, {"measurement": "t1/2λz, Mean (CV%)", "setting": "terminal elimination half-life, NCA, healthy adults n = 12, 1 g i.v. over 2 h, mean (CV%)", "result": "3.87 (21.3) h"}, {"measurement": "t1/2λz, Median (IQR)", "setting": "terminal elimination half-life, NCA, healthy adults n = 12, 1 g i.v. over 2 h, median (IQR)", "result": "3.58 (3.34–4.25) h"}, {"measurement": "CLNCA, Mean (CV%)", "setting": "total body clearance by NCA, healthy adults n = 12, 1 g i.v. over 2 h, mean (CV%)", "result": "0.146 (19.8) L/h/kg"}, {"measurement": "CLNCA, Median (IQR)", "setting": "total body clearance by NCA, healthy adults n = 12, 1 g i.v. over 2 h, median (IQR)", "result": "0.135 (0.128–0.160) L/h/kg"}, {"measurement": "VzZNCA, Mean (CV%)", "setting": "volume of distribution by NCA, healthy adults n = 12, 1 g i.v. over 2 h, mean (CV%)", "result": "0.793 (15.4) L/kg"}, {"measurement": "VzZNCA, Median (IQR)", "setting": "volume of distribution by NCA, healthy adults n = 12, 1 g i.v. over 2 h, median (IQR)", "result": "0.806 (0.701–0.873) L/kg"}]}]}
